Results: patent publication US20140072630A1, “COMBINATION THERAPY WITH NANOPARTICLE COMPOSITIONS OF TAXANE AND HEDGEHOG INHIBITORS” (ABRAXIS BIOSCIENCE, LLC, priority 2009, published 2014)
Several values for one entry are separate records, joined by “and”; a condition that tells them apart may be missing. Equal entries are not always repeated.

How the values were obtained:
[1] = biological target: Aurora-A(h) (Homo sapiens, UniProt O14965); test: Kinase inhibition at 1 μM; type: biochemical; conditions: 1 μM of compound
From the text: (§1) The activities of various hedgehog inhibitors (ABI2012, ABI1914, ABI2008, and ABI1915) on kinase inhibition were studied. […] The compounds were stable in microsomes.

[2] = biological target: GF-1R(h), activate (Homo sapiens, UniProt P08069); test: Kinase inhibition at 1 μM; type: biochemical; conditions: 1 μM of compound
From the text: as §1

[3] = biological target: Ab1(h) (Homo sapiens, UniProt P00519); test: Kinase inhibition at 1 μM; type: biochemical; conditions: 1 μM of compound
From the text: as §1

[4] = biological target: TrkA(h) (Homo sapiens, UniProt P04629); test: Kinase inhibition at 1 μM; type: biochemical; conditions: 1 μM of compound
From the text: as §1

[5] = biological target: MEK1(h) (Homo sapiens, UniProt Q02750); test: Kinase inhibition at 1 μM; type: biochemical; conditions: 1 μM of compound
From the text: as §1

[6] = biological target: cSRC(h) (Homo sapiens, UniProt P12931); test: Kinase inhibition at 1 μM; type: biochemical; conditions: 1 μM of compound
From the text: as §1

[7] = biological target: Ret(h) (Homo sapiens, UniProt P07949); test: Kinase inhibition at 1 μM; type: biochemical; conditions: 1 μM of compound
From the text: as §1

[8] = biological target: Flt3(h) (Homo sapiens, UniProt P36888); test: Kinase inhibition at 1 μM; type: biochemical; conditions: 1 μM of compound
From the text: as §1

[9] = biological target: Met(h) (Homo sapiens, UniProt P08581); test: Kinase inhibition at 1 μM; type: biochemical; conditions: 1 μM of compound
From the text: as §1

[10] = biological target: GSK3β(h) (Homo sapiens, UniProt P49841); test: Kinase inhibition at 1 μM; type: biochemical; conditions: 1 μM of compound
From the text: as §1

[11] = biological target: PDGFRa(h) (Homo sapiens, UniProt P16234); test: Kinase inhibition at 1 μM; type: biochemical; conditions: 1 μM of compound
From the text: as §1

[12] = biological target: mTOR(h) (Homo sapiens, UniProt P42345); test: Kinase inhibition at 1 μM; type: biochemical; conditions: 1 μM of compound
From the text: as §1

[13] = biological target: EGFR(h) (Homo sapiens, UniProt P00533); test: Kinase inhibition at 1 μM; type: biochemical; conditions: 1 μM of compound
From the text: as §1

[14] = biological target: PKBa(h) (Homo sapiens, UniProt P31749); test: Kinase inhibition at 1 μM; type: biochemical; conditions: 1 μM of compound
From the text: as §1

[15] = biological target: EphB4(h) (Homo sapiens, UniProt P54760); test: Kinase inhibition at 1 μM; type: biochemical; conditions: 1 μM of compound
From the text: as §1

[16] = biological target: cKit(h) (Homo sapiens, UniProt P10721); test: Kinase inhibition at 1 μM; type: biochemical; conditions: 1 μM of compound
From the text: as §1

[17] = system: human colon adenocarcinoma HT29 xenograft; test: Tumor growth in human colon adenocarcinoma HT29 xenograft model; type: in vivo, mice; conditions: for tumor inhibition as single agent: i.p., 75 mg/kg qdx12 and 100 mg/kg qdx12
Description: The effects of each of ABI2012, ABI1914, ABI2088, and ABI2099 on tumor growth were studied in human colon adenocarcinoma HT29 xenograft model. Mice were implanted with HT29 cells and ABI2012, ABI1914, ABI2088, and […] were administered by intraperitoneal route (“i.p.”) to the mice at two dosages: 75 mg/kg qdx12 and 100 mg/kg qdx12. […] The body weights of the mice with HT 29 xenograft treated with ABI2012, ABI1914, ABI2088, or ABI2099 were monitored, as shown in FIGS. 5B and 5D.
The effects of the combination of various Hedgehog pathway inhibitors (ABI2012, ABI1914, ABI2088, or ABI2099) and Abraxane® were studied in HT29 xenograft model. Each of ABI2012, ABI1914, ABI2088, and ABI2099 was administered at 75 mg/kg qdx12, i.p. Abraxane® was administered at 10 mg/kg q4dx3, i.v. The tumor volumes were measured. […] The body weights of the mice with HT 29 xenograft treated with each of ABI2012, ABI1914, ABI2088, and ABI2099 in combination with Abraxane® were monitored, as shown in FIG. 6B.

[18] = Drug metabolism and pharmacokinetics, IV and oral dosing; type: in vivo
[19] = system: L3.6pl pancreatic xenograft; test: Tumor growth in L3.6pl pancreatic xenograft model; conditions: days post implant; IPI-926 40 mg/kg QOD, Abraxane 20 mg/kg QW1
Description: The L3.6pl human pancreatic cell line was implanted subcutaneously into mice and treatment was initiated on Day 10 after implant. IPI-926 was administered orally at 40 mg/kg every other day (“QOD”) and Abraxane® was administered i.v. at 20 mg/kg once a week (QW1). […] Mice remained on treatment and time to reach 1000 mm^3 was recorded. Once tumors reached 1000 mm^3, mice were taken off study.

[20] = system: human Gli1 mRNA; test: Q-RT-PCR of human Gli1 mRNA in L3.6pl and ASPC-1 pancreatic cancer xenografts; type: in vivo; conditions: IPI-926 orally 40 mg/kg, tumors collected 24 hours later; data not shown
From the text: (§2) The abilities of IPI-926 to regulate Gli1 expressions were examined in pancreatic cancer xenograft models of L3.6pl and ASPC-1. L3.6pl and ASPC-1 human pancreatic cell lines were implanted subcutaneously into mice. […] Human Hh ligand expression was detected and human Glil mRNA levels were not modulated with the treatment (data not shown).

[21] = system: L3.6pl pancreatic cancer xenograft; test: Tumor perfusion by contrast-enhanced ultrasound in L3.6pl xenograft; type: in vivo, mice
Description: The effects of IPI-926 on tumor perfusion were examined in the L3.6pl pancreatic cancer xenograft model. The L3.6pl tumor cell line was injected subcutaneously and treatment with IPI-926 was initiated. IPI-926 or vehicle was administered orally at 40 mg/kg for seven consecutive days. Mice were subjected to ultrasound image analysis using perfusion contrast enhancement (microbubbles) during the imaging procedure. […] The time to reach peak contrast was measured and there was a decrease in the IPI-926 treated animals compared to vehicle-treated animals.

[22] = system: ASPC-1 human pancreatic tumor; test: Tumor growth in ASPC-1 human pancreatic tumor model; conditions: day 41, compared to vehicle control; IPI-926 40 mg/kg orally QOD, Abraxane 20 mg/kg i.v. QW1
Description: The ASPC-1 human pancreatic cell line was implanted subcutaneously and treatment was initiated on day 20 after implant. IPI-926 was administered orally at 40 mg/kg QOD and Abraxane® was dosed i.v. at 20 mg/kg QW1. The final i.v. dose of Abraxane® was administered on day 34 and the final dose of IPI-926 was administered on day 41. Re-growth was monitored after the treatment stopped.

[23] = system: murine Gli1 mRNA; test: Q-RT-PCR of murine Gli1 mRNA in L3.6pl and ASPC-1 pancreatic cancer xenografts; type: in vivo, mice; conditions: IPI-926 orally 40 mg/kg, tumors collected 24 hours later; p<0.005
From the text: as §2

[24] = compound 75 mg/kg qdx12 i.p. + Abraxane 10 mg/kg q4dx3 i.v.

EphB4(h), sequence (P54760 16-987): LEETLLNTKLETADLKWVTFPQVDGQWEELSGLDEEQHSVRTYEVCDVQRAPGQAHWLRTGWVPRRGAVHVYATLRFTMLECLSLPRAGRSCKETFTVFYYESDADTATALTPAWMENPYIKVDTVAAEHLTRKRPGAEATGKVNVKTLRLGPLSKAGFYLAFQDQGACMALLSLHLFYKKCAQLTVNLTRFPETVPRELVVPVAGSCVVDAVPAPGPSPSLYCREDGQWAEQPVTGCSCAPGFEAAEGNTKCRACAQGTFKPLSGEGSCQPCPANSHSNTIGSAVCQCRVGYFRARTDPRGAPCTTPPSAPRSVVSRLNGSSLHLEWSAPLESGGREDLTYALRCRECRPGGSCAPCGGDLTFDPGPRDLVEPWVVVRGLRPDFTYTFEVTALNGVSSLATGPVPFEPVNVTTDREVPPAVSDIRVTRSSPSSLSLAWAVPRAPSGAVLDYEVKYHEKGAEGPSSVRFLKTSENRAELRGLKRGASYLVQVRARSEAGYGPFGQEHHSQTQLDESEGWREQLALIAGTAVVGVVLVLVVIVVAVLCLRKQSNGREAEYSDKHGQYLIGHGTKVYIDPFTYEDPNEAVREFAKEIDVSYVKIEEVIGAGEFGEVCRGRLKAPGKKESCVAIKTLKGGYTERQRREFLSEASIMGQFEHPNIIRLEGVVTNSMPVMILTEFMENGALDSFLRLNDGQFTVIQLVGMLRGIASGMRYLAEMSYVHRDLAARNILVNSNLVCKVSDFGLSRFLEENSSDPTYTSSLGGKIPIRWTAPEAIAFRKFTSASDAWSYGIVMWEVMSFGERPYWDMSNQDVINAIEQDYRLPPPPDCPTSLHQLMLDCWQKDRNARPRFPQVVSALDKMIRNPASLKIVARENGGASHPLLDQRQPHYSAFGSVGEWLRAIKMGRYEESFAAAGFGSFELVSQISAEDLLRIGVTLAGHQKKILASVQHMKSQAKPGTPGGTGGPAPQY
Flt3(h), sequence (P36888 27-993): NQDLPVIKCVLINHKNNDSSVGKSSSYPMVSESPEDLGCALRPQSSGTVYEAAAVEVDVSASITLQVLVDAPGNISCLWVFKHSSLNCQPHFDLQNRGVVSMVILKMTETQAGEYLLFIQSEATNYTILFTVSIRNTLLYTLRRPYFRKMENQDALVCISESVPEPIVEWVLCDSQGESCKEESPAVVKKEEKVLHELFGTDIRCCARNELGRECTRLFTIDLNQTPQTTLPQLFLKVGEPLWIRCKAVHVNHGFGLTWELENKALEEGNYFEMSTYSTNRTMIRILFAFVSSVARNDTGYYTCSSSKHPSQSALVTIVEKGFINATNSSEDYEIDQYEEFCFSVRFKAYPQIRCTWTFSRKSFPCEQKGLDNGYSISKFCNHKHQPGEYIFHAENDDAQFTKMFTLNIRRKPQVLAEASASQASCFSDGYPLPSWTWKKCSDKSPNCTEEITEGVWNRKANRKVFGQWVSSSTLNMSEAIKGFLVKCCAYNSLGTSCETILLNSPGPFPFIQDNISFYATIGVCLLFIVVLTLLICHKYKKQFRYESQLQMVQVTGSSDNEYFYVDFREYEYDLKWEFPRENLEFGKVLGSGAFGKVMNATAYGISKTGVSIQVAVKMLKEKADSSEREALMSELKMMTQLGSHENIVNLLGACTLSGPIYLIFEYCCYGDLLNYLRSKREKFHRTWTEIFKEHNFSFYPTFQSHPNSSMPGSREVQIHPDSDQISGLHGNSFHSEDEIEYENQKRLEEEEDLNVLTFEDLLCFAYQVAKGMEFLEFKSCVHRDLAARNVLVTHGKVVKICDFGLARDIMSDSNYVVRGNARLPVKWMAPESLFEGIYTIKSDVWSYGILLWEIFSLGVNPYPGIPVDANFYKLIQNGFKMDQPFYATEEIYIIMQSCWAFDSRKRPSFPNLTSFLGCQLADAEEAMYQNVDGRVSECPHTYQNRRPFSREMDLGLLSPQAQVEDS
GSK3β(h), sequence (P49841 whole entry): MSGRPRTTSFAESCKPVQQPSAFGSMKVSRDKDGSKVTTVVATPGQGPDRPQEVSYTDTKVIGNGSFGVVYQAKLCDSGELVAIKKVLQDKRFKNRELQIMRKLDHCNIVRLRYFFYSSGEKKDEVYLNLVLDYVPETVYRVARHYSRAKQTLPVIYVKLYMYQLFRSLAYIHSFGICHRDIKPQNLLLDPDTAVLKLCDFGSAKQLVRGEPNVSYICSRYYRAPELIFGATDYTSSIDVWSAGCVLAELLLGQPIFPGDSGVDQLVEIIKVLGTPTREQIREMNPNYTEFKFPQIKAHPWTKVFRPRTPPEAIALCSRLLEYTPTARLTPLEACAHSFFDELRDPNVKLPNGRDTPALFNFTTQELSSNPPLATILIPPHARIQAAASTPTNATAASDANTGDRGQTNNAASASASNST
cSRC(h), sequence (P12931 whole entry): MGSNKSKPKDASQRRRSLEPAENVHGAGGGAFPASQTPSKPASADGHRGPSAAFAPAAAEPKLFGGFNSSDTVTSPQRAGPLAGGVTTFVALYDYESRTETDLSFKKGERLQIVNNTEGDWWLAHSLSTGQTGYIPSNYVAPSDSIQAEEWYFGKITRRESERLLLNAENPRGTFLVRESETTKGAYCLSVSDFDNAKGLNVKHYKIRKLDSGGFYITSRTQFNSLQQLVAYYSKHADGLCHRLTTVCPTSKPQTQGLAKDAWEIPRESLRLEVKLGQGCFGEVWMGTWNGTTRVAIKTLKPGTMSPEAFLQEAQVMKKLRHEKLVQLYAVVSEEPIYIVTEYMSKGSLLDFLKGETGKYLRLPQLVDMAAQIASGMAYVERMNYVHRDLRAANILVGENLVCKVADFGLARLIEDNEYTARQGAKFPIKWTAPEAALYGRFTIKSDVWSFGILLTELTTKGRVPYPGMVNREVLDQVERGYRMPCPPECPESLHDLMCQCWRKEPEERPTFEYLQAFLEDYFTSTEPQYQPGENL
Aurora-A(h), sequence (O14965 whole entry): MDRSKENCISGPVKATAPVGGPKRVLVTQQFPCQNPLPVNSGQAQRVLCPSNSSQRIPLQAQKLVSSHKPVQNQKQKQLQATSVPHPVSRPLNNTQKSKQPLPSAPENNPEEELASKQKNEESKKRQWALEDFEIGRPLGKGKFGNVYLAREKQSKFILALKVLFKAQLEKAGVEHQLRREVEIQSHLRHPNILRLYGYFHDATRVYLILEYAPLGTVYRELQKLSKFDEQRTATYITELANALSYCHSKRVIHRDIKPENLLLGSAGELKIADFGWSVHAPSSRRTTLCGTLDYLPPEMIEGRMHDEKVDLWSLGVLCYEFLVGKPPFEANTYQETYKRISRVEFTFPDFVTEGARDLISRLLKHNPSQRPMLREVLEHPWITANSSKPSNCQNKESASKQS
EGFR(h), sequence (P00533 25-1210): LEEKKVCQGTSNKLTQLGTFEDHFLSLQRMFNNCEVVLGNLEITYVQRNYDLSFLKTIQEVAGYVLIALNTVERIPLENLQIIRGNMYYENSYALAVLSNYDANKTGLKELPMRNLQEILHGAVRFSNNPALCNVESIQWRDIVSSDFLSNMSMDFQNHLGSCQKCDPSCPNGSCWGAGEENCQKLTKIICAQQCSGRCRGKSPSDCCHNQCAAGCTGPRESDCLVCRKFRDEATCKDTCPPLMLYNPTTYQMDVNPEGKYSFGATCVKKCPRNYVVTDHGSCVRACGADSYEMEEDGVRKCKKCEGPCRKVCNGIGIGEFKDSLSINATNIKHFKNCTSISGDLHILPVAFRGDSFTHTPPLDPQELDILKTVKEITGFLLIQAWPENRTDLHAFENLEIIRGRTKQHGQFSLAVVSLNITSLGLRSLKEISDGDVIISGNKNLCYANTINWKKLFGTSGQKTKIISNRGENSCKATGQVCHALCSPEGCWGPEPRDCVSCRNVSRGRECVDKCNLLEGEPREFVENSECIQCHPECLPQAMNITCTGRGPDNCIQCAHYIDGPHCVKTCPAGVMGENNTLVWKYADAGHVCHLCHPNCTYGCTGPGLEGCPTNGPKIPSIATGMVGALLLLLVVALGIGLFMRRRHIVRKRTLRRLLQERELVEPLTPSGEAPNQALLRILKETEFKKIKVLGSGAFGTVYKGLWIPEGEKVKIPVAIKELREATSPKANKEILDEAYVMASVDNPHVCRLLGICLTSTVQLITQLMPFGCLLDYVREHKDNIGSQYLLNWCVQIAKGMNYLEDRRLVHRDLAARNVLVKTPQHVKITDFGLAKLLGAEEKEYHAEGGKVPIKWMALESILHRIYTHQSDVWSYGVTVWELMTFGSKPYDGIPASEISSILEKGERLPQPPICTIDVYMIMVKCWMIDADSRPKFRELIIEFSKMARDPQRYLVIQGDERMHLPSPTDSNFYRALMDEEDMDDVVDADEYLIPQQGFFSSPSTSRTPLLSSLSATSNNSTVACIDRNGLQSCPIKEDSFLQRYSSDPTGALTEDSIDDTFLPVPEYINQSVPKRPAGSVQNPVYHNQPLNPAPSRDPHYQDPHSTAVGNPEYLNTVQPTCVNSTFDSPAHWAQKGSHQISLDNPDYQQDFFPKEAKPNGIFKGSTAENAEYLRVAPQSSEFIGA
MEK1(h), sequence (Q02750 whole entry): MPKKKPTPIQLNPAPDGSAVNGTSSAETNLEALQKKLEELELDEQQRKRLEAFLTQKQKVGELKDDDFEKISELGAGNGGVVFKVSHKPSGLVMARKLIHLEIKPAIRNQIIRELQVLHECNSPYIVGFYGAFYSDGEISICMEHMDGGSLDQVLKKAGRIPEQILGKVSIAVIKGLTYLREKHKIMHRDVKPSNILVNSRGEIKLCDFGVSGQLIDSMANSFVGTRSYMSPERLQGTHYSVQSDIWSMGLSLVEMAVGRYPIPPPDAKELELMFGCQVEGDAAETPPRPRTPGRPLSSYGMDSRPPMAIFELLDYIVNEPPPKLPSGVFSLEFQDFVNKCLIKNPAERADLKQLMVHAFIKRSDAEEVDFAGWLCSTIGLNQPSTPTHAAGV

| Structure (SMILES) | inhibition at 1 µM [1] [%] | inhibition at 1 µM [2] [%] | inhibition at 1 µM [3] [%] | inhibition at 1 µM [4] [%] | inhibition at 1 µM [5] [%] | inhibition at 1 µM [6] [%] | inhibition at 1 µM [7] [%] | inhibition at 1 µM [8] [%] | inhibition at 1 µM [9] [%] | inhibition at 1 µM [10] [%] | inhibition at 1 µM [11] [%] | inhibition at 1 µM [12] [%] | inhibition at 1 µM [13] [%] | inhibition at 1 µM [14] [%] | inhibition at 1 µM [15] [%] | inhibition at 1 µM [16] [%] | tumor inhibition as single agent [17] | F ([18]; Oral dosing) [%] | AUC(0-inf) ([18]; in vivo, IV dosing) [ng·h/mL] | clearance ([18]; in vivo, IV dosing) [mL/min/kg] | other results |
| --- | --- | --- | --- | --- | --- | --- | --- | --- | --- | --- | --- | --- | --- | --- | --- | --- | --- | --- | --- | --- | --- |
| CS(=O)(=O)c1ccc(C(=O)Nc2ccc(Cl)c(-c3nccc4ccccc34)c2)c(Cl)c1 [ABI1914] | 1 | -5 | -18 | -12 | -9 | 3 | -3 | -14 | 3 | 3 | -3 | 6 | -3 | 5 | -12 | -4 | none of ABI2012, ABI1914, ABI2088, and ABI2099 as single agent showed significant tumor inhibition effects | – | – | – | – |
| CC(=O)Nc1ccc(C(=O)Nc2ccc(Cl)c(-c3nccc4ccccc34)c2)c(Cl)c1 [ABI2088] | – | – | – | – | – | – | – | – | – | – | – | – | – | – | – | – | none of ABI2012, ABI1914, ABI2088, and ABI2099 as single agent showed significant tumor inhibition effects | 62 | 1390 ± 164 | 12.1 ± 1.59 | half-life ([18]; in vivo, IV dosing): 78.6 ± 8.4 min; Vd ([18]; in vivo, IV dosing, read-out: Vss): 1.02 ± 0.11 L/kg; AUC(0-inf) ([18]; in vivo, Oral dosing): 4310 ± 1200 ng·h/mL; Cmax ([18]; in vivo, Oral dosing): 1000 ± 659 ng/mL; Tmax ([18]; in vivo, Oral dosing): 30 min; enhancement of the antitumor activity of Abraxane [17, 24]: significantly enhanced the antitumor activity of Abraxane®; tumor growth inhibition in combination with Abraxane ([17]; day 22, compound 75 mg/kg qdx12 i.p. + Abraxane 10 mg/kg q4dx3 i.v.): about 100% |
| Cc1cc(C(F)(F)F)ccc1C(=O)Nc1ccc(Cl)c(-c2nccc3ccccc23)c1 [ABI2099] | – | – | – | – | – | – | – | – | – | – | – | – | – | – | – | – | none of ABI2012, ABI1914, ABI2088, and ABI2099 as single agent showed significant tumor inhibition effects | – | – | – | enhancement of the antitumor activity of Abraxane [17, 24]: significantly enhanced the antitumor activity of Abraxane® |
| CS(=O)(=O)c1ccc(C(=O)Nc2ccc(Cl)c(-c3ccccn3)c2)c(Cl)c1 [GDC-0449] | 7 | 8 | 13 | -7 | 2 | -1 | 1 | 1 | -19 | -4 | 0 | -6 | -9 | -19 | -33 | -4 | none of ABI2012, ABI1914, ABI2088, and ABI2099 as single agent showed significant tumor inhibition effects | 53 | 3980 ± 1540 | 4.65 ± 1.81 | half-life ([18]; in vivo, IV dosing): 79.2 ± 15.5 min; AUC(0-inf) ([18]; in vivo, Oral dosing): 10500 ± 3150 ng·h/mL; Cmax ([18]; in vivo, Oral dosing): 2760 ± 1020 ng/mL; Tmax ([18]; in vivo, Oral dosing): 40 ± 17.3 min |
| CC1=C2C[C@H]3[C@@H](CC[C@@H]4C[C@H](NS(C)(=O)=O)CC[C@@]43C)[C@@H]2CC[C@@]2(C1)O[C@@H]1C[C@H](C)CN[C@H]1[C@H]2C [IPI-926, IPI926] | – | – | – | – | – | – | – | – | – | – | – | – | – | – | – | – | – | – | – | – | median % of mice on study (mice taken off study when tumors reached 1000 mm^3) [19]: no effect as a single agent; human Gli1 mRNA levels [20]: not modulated; average peak time for contrast agent levels ([21]; 40 mg/kg orally for seven consecutive days, vehicle 11.0 seconds, p=0.0321): 4.75 s; Time to Peak (contrast) ([21]; individual mice, 40 mg/kg orally for seven consecutive days, 40 mg/kg): 3 s and 4 s and 6 s (2×); tumor perfusion ([21]; subcutaneous L3.6pl model, 40 mg/kg orally for seven days): increased tumor perfusion; tumor growth inhibition [22]: 38%; murine Gli1 mRNA expression [23]: inhibition of murine Glil mRNA expression |
